Values joined by “and” are separate entries in the source; they are usually repeats but may differ in a detail not shown here. Equal values may be shown once. Inconclusive results and toxic doses are left out. Cut-off read from the data, not from the text of the source: active = T/C of 150% or more; inactive = T/C below 125%. Peptide text beside a SMILES is read from it.
Test system: L1210 leukemia ip in BDF1 mice, survival T/C
Experiment: NCI In Vivo Anticancer Drug Screen. Data for tumor model L1210 Leukemia (intraperitoneal) in B6D2F1 (BDF1) mice
Settings: endpoint: mean survival time, higher = longer survival
Summary of the method: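 Antitumor effect is assessed in tumor-bearing animals. Survival in the compound arm is compared with a vehicle-dosed control arm and expressed as their quotient.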

[1] = dose: 12.5 mg/kg/injection, schedule: Q01DX009 (ip), vehicle: Klucel (hydroxypropylcellulose) (HPC)
[2] = dose: 25.0 mg/kg/injection, schedule: Q01DX009 (ip), vehicle: Klucel (hydroxypropylcellulose) (HPC)
[3] = dose: 50.0 mg/kg/injection, schedule: Q01DX009 (ip), vehicle: Klucel (hydroxypropylcellulose) (HPC)
[4] = dose: 100.0 mg/kg/injection, schedule: Q01DX001 (ip), vehicle: saline
[5] = dose: 200.0 mg/kg/injection, schedule: Q04DX002 (ip), vehicle: Klucel (hydroxypropylcellulose) (HPC)
[6] = dose: 400.0 mg/kg/injection, schedule: Q04DX002 (ip), vehicle: Klucel (hydroxypropylcellulose) (HPC)
[7] = dose: 100.0 mg/kg/injection, schedule: Q04DX002 (ip), vehicle: Klucel (hydroxypropylcellulose) (HPC)
[8] = dose: 100.0 mg/kg/injection, schedule: Q01DX009 (ip), vehicle: Klucel (hydroxypropylcellulose) (HPC)
[9] = dose: 100.0 mg/kg/injection, schedule: Q04DX003 (ip), vehicle: Klucel (hydroxypropylcellulose) (HPC)
[10] = dose: 200.0 mg/kg/injection, schedule: Q01DX009 (ip), vehicle: Klucel (hydroxypropylcellulose) (HPC)
[11] = dose: 200.0 mg/kg/injection, schedule: Q04DX003 (ip), vehicle: Klucel (hydroxypropylcellulose) (HPC)

Measured: T/C

O=C(NCCCN1CCOCC1)C(Oc1ccccc1)Oc1ccccc1
inactive: dose: 6.25 mg/kg/injection, schedule: Q01DX009 (ip), vehicle: Klucel (hydroxypropylcellulose) (HPC) 91 % of control | [1] 98 % of control | [2] 100 % of control | [3] 89 % of control

O=C(O)CCl
inactive: dose: 50.0 mg/kg/injection, schedule: Q01DX001 (ip), vehicle: saline 98 % of control | [4] 104 % of control

Cc1[nH]nc(C(F)(F)F)c1N=NN1CCC(C(N)=O)CC1
inactive: dose: 75.0 mg/kg/injection, schedule: Q01DX001 (ip), vehicle: carboxymethylcellulose (CMC) 95 % of control

O=C(c1ccccc1)c1cc(CN(CCCl)CCCl)c(O)cc1O
inactive: dose: 100.0 mg/kg/injection, schedule: Q01DX001 (ip), vehicle: carboxymethylcellulose (CMC) 106 % of control | dose: 200.0 mg/kg/injection, schedule: Q01DX001 (ip), vehicle: carboxymethylcellulose (CMC) 117 % of control | dose: 400.0 mg/kg/injection, schedule: Q01DX001 (ip), vehicle: carboxymethylcellulose (CMC) 122 % of control

Cc1ccc(NC(=S)Nc2ccccc2F)cc1
inactive: dose: 100.0 mg/kg/injection, schedule: Q01DX001 (ip), vehicle: saline with Tween-80 94 % of control and 100 % of control | dose: 100.0 mg/kg/injection, schedule: Q04DX002 (ip), vehicle: saline with Tween-80 100 % of control and 104 % of control | dose: 200.0 mg/kg/injection, schedule: Q01DX001 (ip), vehicle: saline with Tween-80 98 % of control and 100 % of control | dose: 200.0 mg/kg/injection, schedule: Q04DX002 (ip), vehicle: saline with Tween-80 95 % of control | dose: 400.0 mg/kg/injection, schedule: Q01DX001 (ip), vehicle: saline with Tween-80 96 % of control and 103 % of control | dose: 400.0 mg/kg/injection, schedule: Q04DX002 (ip), vehicle: saline with Tween-80 92 % of control and 104 % of control

CCCCCCCCCCCCCCCC[N+]1(CC)CCOCC1
inactive: dose: 5.0 mg/kg/injection, schedule: Q01DX001 (ip), vehicle: Klucel (hydroxypropylcellulose) (HPC) 97 % of control | dose: 5.0 mg/kg/injection, schedule: Q01DX001 (ip), vehicle: saline 100 % of control | dose: 5.0 mg/kg/injection, schedule: Q01DX009 (ip), vehicle: Klucel (hydroxypropylcellulose) (HPC) 98 % of control and 103 % of control | dose: 10.0 mg/kg/injection, schedule: Q01DX001 (ip), vehicle: Klucel (hydroxypropylcellulose) (HPC) 113 % of control | dose: 10.0 mg/kg/injection, schedule: Q01DX001 (ip), vehicle: saline 103 % of control | dose: 10.0 mg/kg/injection, schedule: Q01DX009 (ip), vehicle: saline 121 % of control and 88 % of control | dose: 10.0 mg/kg/injection, schedule: Q04DX002 (ip), vehicle: Klucel (hydroxypropylcellulose) (HPC) 98 % of control and 108 % of control | dose: 10.0 mg/kg/injection, schedule: Q04DX002 (ip), vehicle: saline 95 % of control | dose: 20.0 mg/kg/injection, schedule: Q01DX001 (ip), vehicle: Klucel (hydroxypropylcellulose) (HPC) 111 % of control | dose: 20.0 mg/kg/injection, schedule: Q01DX001 (ip), vehicle: saline 103 % of control | dose: 20.0 mg/kg/injection, schedule: Q04DX002 (ip), vehicle: Klucel (hydroxypropylcellulose) (HPC) 98 % of control and 101 % of control | dose: 20.0 mg/kg/injection, schedule: Q04DX002 (ip), vehicle: saline 102 % of control | dose: 40.0 mg/kg/injection, schedule: Q04DX002 (ip), vehicle: Klucel (hydroxypropylcellulose) (HPC) 90 % of control | dose: 40.0 mg/kg/injection, schedule: Q04DX002 (ip), vehicle: saline 95 % of control and 98 % of control | [5] 93 % of control | [6] 88 % of control

c1ccc(C2OCCCO2)cc1
inactive: [1] 92 % of control | [2] 100 % of control | dose: 400.0 mg/kg/injection, schedule: Q01DX009 (ip), vehicle: Klucel (hydroxypropylcellulose) (HPC) 87 % of control

CC(=O)Nc1cccc(C)c1C
inactive: [7] 107 % of control | [5] 100 % of control | [6] 103 % of control

COc1cccc(/C=N/NC(=O)c2ccncc2)c1OC
inactive: [2] 97 % of control | [3] 101 % of control | [8] 92 % of control and 105 % of control

CC1(C)N=C(N)N=C(N)N1c1cccc(S(=O)(=O)F)c1
inactive: dose: 0.8 mg/kg/injection, schedule: Q01DX009 (ip), vehicle: saline 95 % of control | dose: 4.0 mg/kg/injection, schedule: Q01DX009 (ip), vehicle: saline 95 % of control | dose: 20.0 mg/kg/injection, schedule: Q01DX009 (ip), vehicle: saline 100 % of control | [4] 100 % of control | dose: 200.0 mg/kg/injection, schedule: Q01DX001 (ip), vehicle: saline 102 % of control

CCCCCCCCCCCCCCC/C(CC)=N/Nc1ccc([N+](=O)[O-])cc1[N+](=O)[O-]
inactive: dose: 25.0 mg/kg/injection, schedule: Q01DX001 (ip), vehicle: Klucel (hydroxypropylcellulose) (HPC) 103 % of control | dose: 50.0 mg/kg/injection, schedule: Q01DX001 (ip), vehicle: Klucel (hydroxypropylcellulose) (HPC) 101 % of control | dose: 100.0 mg/kg/injection, schedule: Q01DX001 (ip), vehicle: Klucel (hydroxypropylcellulose) (HPC) 111 % of control

Cn1nnc2c1C(=O)c1ccccc1C2=O
inactive: dose: 100.0 mg/kg/injection, schedule: Q04DX003 (ip), vehicle: other 97 % of control | dose: 200.0 mg/kg/injection, schedule: Q04DX003 (ip), vehicle: other 97 % of control

O=C(/C=C(\Cl)C(=O)NO)NO
inactive: dose: 100.0 mg/kg/injection, schedule: Q01DX009 (ip), vehicle: acetone 102 % of control

CN(Cc1ccccc1)Cc1ccccc1
inactive: [3] 100 % of control | [8] 100 % of control | [9] 97 % of control | [10] 92 % of control | [11] 97 % of control

CCN(CC)c1ccc2c(c1)Cc1ccccc1-2
inactive: dose: 100.0 mg/kg/injection, schedule: Q04DX003 (ip), vehicle: saline with Tween-80 100 % of control | dose: 200.0 mg/kg/injection, schedule: Q04DX003 (ip), vehicle: saline with Tween-80 98 % of control | dose: 400.0 mg/kg/injection, schedule: Q04DX003 (ip), vehicle: saline with Tween-80 100 % of control

O=c1[nH]nc(-c2ccccn2)o1
inactive: dose: 50.0 mg/kg/injection, schedule: Q01DX009 (ip), vehicle: saline with Tween-80 97 % of control | dose: 100.0 mg/kg/injection, schedule: Q01DX009 (ip), vehicle: saline with Tween-80 90 % of control | dose: 200.0 mg/kg/injection, schedule: Q01DX009 (ip), vehicle: saline with Tween-80 97 % of control

CSCCC(NC(=O)C(N)C(C)C)C(=O)O (stereo not drawn) (H-Val-Met-OH; configuration not given here)
inactive: dose: 100.0 mg/kg/injection, schedule: Q04DX003 (ip), vehicle: saline 100 % of control | dose: 200.0 mg/kg/injection, schedule: Q04DX003 (ip), vehicle: saline 108 % of control | dose: 400.0 mg/kg/injection, schedule: Q04DX003 (ip), vehicle: saline 103 % of control

Cc1ccccc1N(C=O)c1ccccc1C
inactive: dose: 50.0 mg/kg/injection, schedule: Q01DX Z (ip), vehicle: methylcellulose (MC) 111 % of control | dose: 80.0 mg/kg/injection, schedule: Q01DX Z (ip), vehicle: methylcellulose (MC) 115 % of control | dose: 125.0 mg/kg/injection, schedule: Q01DX Z (ip), vehicle: methylcellulose (MC) 98 % of control and 114 % of control | dose: 180.0 mg/kg/injection, schedule: Q01DX Z (ip), vehicle: methylcellulose (MC) 115 % of control | dose: 240.0 mg/kg/injection, schedule: Q01DX Z (ip), vehicle: methylcellulose (MC) 97 % of control | dose: 250.0 mg/kg/injection, schedule: Q01DX Z (ip), vehicle: methylcellulose (MC) 93 % of control | dose: 300.0 mg/kg/injection, schedule: Q01DX Z (ip), vehicle: methylcellulose (MC) 109 % of control | dose: 360.0 mg/kg/injection, schedule: Q01DX Z (ip), vehicle: methylcellulose (MC) 100 % of control | dose: 500.0 mg/kg/injection, schedule: Q01DX Z (ip), vehicle: methylcellulose (MC) 106 % of control | dose: 1000.0 mg/kg/injection, schedule: Q01DX Z (ip), vehicle: methylcellulose (MC) 98 % of control

CN1C(=O)c2ccccc2/C=C\c2ccccc21
inactive: [7] 103 % of control | [5] 92 % of control | [6] 87 % of control

O=[N+]([O-])c1cccc(C=Nc2cccc(C(F)(F)F)c2)c1
inactive: [8] 109 % of control | [9] 110 % of control | [10] 98 % of control | [11] 110 % of control | dose: 400.0 mg/kg/injection, schedule: Q04DX003 (ip), vehicle: Klucel (hydroxypropylcellulose) (HPC) 101 % of control

Reference: PubChem BioAssay AID248 (DTP/NCI, 2004)
